Assay results taken from ChEMBL document CHEMBL1146377, “Antitrypanosomal activity of quaternary naphthalimide derivatives” (Bioorg Med Chem Lett, 2007).
pIC50: −log10 of the molar value.

What was measured:
[1] = Cytotoxicity against J774.1 cells after 48 hrs; format: cell-based; conditions: Mus musculus, J774.1, 48 h
[2] = test system: Trypanosoma brucei brucei; assay: Antitrypanosomal activity against Trypanosoma brucei brucei after 48 hrs; format: functional, organism-based

| SMILES | pIC50 [1] | pIC50 [2] |
| --- | --- | --- |
| CC(C)(CN1C(=O)c2cccc3cc(N)cc(c23)C1=O)C[N+](C)(C)CCCCCC[N+](C)(C)CCCN1C(=O)c2ccccc2C1=O | < 4.00 | 4.62 |
| CCC[N+](C)(C)CC(C)(C)CN1C(=O)c2cccc3cccc(c23)C1=O | < 4.00 | 5.92 |
| CC(C)(CN1C(=O)c2cccc3cccc(c23)C1=O)C[N+](C)(C)CCCCCC[N+](C)(C)CCCN1C(=O)c2cccc3cccc(c23)C1=O | < 4.00 | 5.37 |
| CC(C)(CN1C(=O)c2cccc3cc([N+](=O)[O-])cc(c23)C1=O)C[N+](C)(C)CCCCCC[N+](C)(C)CCCN1C(=O)c2ccccc2C1=O | < 4.00 | 4.64 |
| CN(CCCCCCN(C)CCCN1C(=O)c2cccc3cccc(c23)C1=O)CCCN1C(=O)c2cccc3cccc(c23)C1=O | 5.49 | 7.52 |
| CC(C)(CN1C(=O)c2cccc3cccc(c23)C1=O)C[N+](C)(C)CCCCCCBr | < 4.00 | 6.16 |
| CC(C)(CN1C(=O)c2cccc3ccc(N)c(c23)C1=O)C[N+](C)(C)CCCCCC[N+](C)(C)CCCN1C(=O)c2ccccc2C1=O | < 4.00 | 5.23 |
| CC(C)(CN1C(=O)c2cccc3ccc([N+](=O)[O-])c(c23)C1=O)C[N+](C)(C)CCCCCC[N+](C)(C)CCCN1C(=O)c2ccccc2C1=O | < 4.00 | 5.06 |
| Cc1ccc2c(c1)C(=O)N(CCC[N+](C)(C)CCCCCC[N+](C)(C)CC(C)(C)CN1C(=O)c3cccc4cccc(c34)C1=O)C2=O | < 4.00 | 5.34 |
| Cc1ccc2c(c1)C(=O)N(CCC[N+](C)(C)CCCCCC[N+](C)(C)CCCN1C(=O)c3cccc4cccc(c34)C1=O)C2=O | < 4.00 | 4.55 |
| CC(C)(CN1C(=O)c2cccc3cccc(c23)C1=O)C[N+](C)(C)CCCCCC[N+](C)(C)CC(C)(C)CN1C(=O)c2cccc3cccc(c23)C1=O | < 4.00 | 5.93 |
| NCCC[C@](N)(C(=O)O)C(F)F [EFLORNITHINE] | – | 4.64 |
| N=C(N)c1ccc(OCCCCCOc2ccc(C(=N)N)cc2)cc1 [PENTAMIDINE ISETHIONATE] | – | 8.57 |
| Cc1ccc(C(=O)Nc2ccc(S(=O)(=O)O)c3cc(S(=O)(=O)O)cc(S(=O)(=O)O)c23)cc1NC(=O)c1cccc(NC(=O)Nc2cccc(C(=O)Nc3cc(C(=O)Nc4ccc(S(=O)(=O)O)c5cc(S(=O)(=O)O)cc(S(=O)(=O)O)c45)ccc3C)c2)c1 [SURAMIN HEXASODIUM] | – | 6.52 |
